Measurements as given in the RepoRT retention time repository (doi:10.1021/acs.analchem.2c02893).

Assay: RP, Thermo Scientific Acclaim RSLC 120 C18, 100 × 2.1 mm, 2.2 µm, 30 °C, 0.2 mL/min, estimated dead time 1.1 min; A: 90% water + 10% methanol + 0.01% formic acid + 5 mM ammonium formate, pH 3.61; B: methanol + 0.01% formic acid + 5 mM ammonium formate, pH 3.61; gradient (min/%B) 0/1 1/1 2/39 13/99.9 15/99.9 15.1/1 20.1/1
Settings: stereoisomer not certain

| SMILES | LC retention time [min] |
| --- | --- |
| CNC(=O)N(C)c1nnc(C(C)(C)C)s1 [Tebuthiuron] | 7.25 |
| NC1Cc2ccc(I)cc2C1 (centres undefined) [5-Iodo-2-aminoindane (5-IAI)] | 5.87 |
| O=C1Nc2ccc([N+](=O)[O-])cc2C(c2ccccc2F)=NC1O (centres undefined) [Nifoxipam] | 6.58 |
| CC12CCC(=O)C=C1CCC1C2C(=O)CC2(C)C(O)CCC12 (centres undefined) [11-Ketotestosterone] | 7.9 |
| CC1(C)OC2CC3C4CC(F)C5=CC(=O)C=CC5(C)C4(F)C(O)CC3(C)C2(C(=O)CO)O1 (centres undefined) [Fluocinolone acetonide] | 8.73 |
| CCC(N)Cc1ccc2c(c1)OCO2 (centres undefined) [BDB] | 4.73 |
| CCn1nc(C(=O)O)c(=O)c2cc3c(cc21)OCO3 [Cinoxacin] | 5.32 |
| COc1cc(CCN)c(OC)cc1I [2C-I] | 6.06 |
| c1ccc(CN2CCNCC2)cc1 [Benzylpiperazine] | 4.23 |
| CCS(=O)(=O)CCn1c([N+](=O)[O-])cnc1C [Tinidazole] | 3.86 |
| COC(=O)c1ccccc1C(=O)c1ccc(OCCN2CCCCC2)cc1 [Pitofenone] | 5.44 |
| CC1(C)CON(Cc2ccccc2Cl)C1=O [Clomazone  (Command)] | 8.89 |
| N=C1CN(O)C(c2ccccc2)=c2cc(Cl)ccc2=N1 [Chlordiazepoxide-Desmethyl] | 8.27 |
| COC(=O)C1=COC(C)C2CN3CCc4c([nH]c5ccccc45)C3CC12 (centres undefined) [Raubasine] | 6.66 |
| Nc1cc(-c2ccncc2)c[nH]c1=O [Amrinone] | 2.88 |
| Cc1c(C=O)c(=O)n(-c2ccccc2)n1C [4-Formyl-antipyrine] | 3.98 |
| CC1C=CC=CCCC=CC=CC=CC=CC(OC2OC(C)C(O)C(N)C2O)CC2OC(O)(CC(O)C(O)CCC(O)CC(O)CC(O)CC(=O)OC(C)C(C)C1O)CC(O)C2C(=O)O (centres undefined) [Nystatin] | 10.3 |
| CCC1OC(=O)C(C)C(OC2CC(C)(OC)C(O)C(C)O2)C(C)C(OC2OC(C)CC(NC)C2O)C(C)(OC)CC(C)C(=O)C(C)C(O)C1(C)O (centres undefined) [Clarithromycin-N-desmethyl] | 9.16 |
| Cc1c(NC(C)C)c(=O)n(-c2ccccc2)n1C [Ramifenazone] | 5.72 |
| CCCCOC(=O)N(C)SN(C)C(=O)Oc1cccc2c1OC(C)(C)C2 [Furathiocarb] | 12.1 |
| COc1ccccc1Oc1c(NS(=O)(=O)c2ccc(C(C)(C)C)cc2)nc(-c2ncccn2)nc1OCCO [Bosentan] | 9.96 |

| SMILES | LC retention time [min] |
| --- | --- |
| O=C(Nc1ccccc1)N(Cc1ccc(Cl)cc1)C1CCCC1 [Pencycuron] | 11.4 |
| Cc1cnc(C(=O)NCCc2ccc(S(=O)(=O)NC(=O)NC3CCCCC3)cc2)cn1 [Glipizide] | 8.11 |
| Cc1ccccc1C(=O)Nc1cccc(OC(C)C)c1 [Mepronil] | 9.62 |
| CCCCCn1cc(C(=O)c2cccc3ccccc23)cc1-c1ccccc1F [JWH-307] | 12.8 |
| CCN(CC)CC(C)(C)COC(=O)c1ccc(N)cc1 [Dimethocain] | 4.24 |
| COc1ccc(CC(C)NCC(O)c2ccc(O)c(NC=O)c2)cc1 (centres undefined) [Formoterol] | 4.79 |
| CCCOC(=O)c1ccc(O)cc1 [Propylparaben] | 8.36 |
| CN1CCC23c4c5ccc(O)c4OC2C(O)CCC3C1C5 (centres undefined) [Morphine-Dihydro] | 2.66 |
| CN1CCCC1Cc1c[nH]c2ccc(CCS(=O)(=O)c3ccccc3)cc12 (centres undefined) [Eletriptan] | 5.51 |
| S=C1N=CN=C2N=CN=C12 [Mercaptopurine (6-)] | 2.61 |
| CC(=NC#N)N(C)Cc1ccc(Cl)nc1 [Acetamiprid] | 5.17 |
| CCN1CCCC1CNC(=O)c1c(OC)ccc(Br)c1OC (centres undefined) [Remoxipride] | 5.06 |
| Cc1ncc(CO)c(CO)c1O [Pyridoxine] | 2.18 |
| COc1cc(C(=O)NCc2ccc(OCCN(C)C)cc2)cc(OC)c1OC [Trimethobenzamide] | 4.86 |
| O=C1NCN(c2ccccc2)C12CCN(CCCC(c1ccc(F)cc1)c1ccc(F)cc1)CC2 [Fluspirilen] | 9.19 |
| CCCCCn1cc(C(=O)Nc2ccccc2)c2ccccc21 [SDB-006 N-phenyl] | 11.3 |
| C=CCc1ccccc1OCC(O)CNC(C)C (centres undefined) [Alprenolol] | 6.71 |
| CC1(C)C(C=C(Cl)Cl)C1C(=O)OCc1cccc(Oc2ccccc2)c1 (centres undefined) [Permethrin] | 13.9 |
| CSc1ccc(C(=O)c2[nH]c(=O)[nH]c2C)cc1 [Enoximon] | 6.67 |
| CC(C)Nc1nc(N)[nH]c(=O)n1 [Atrazine-desethyl-2-hydroxy (=Prometon-Hydroxy-Desisopropyl)] | 3.16 |
| COCCOCCOC [Diglyme] | 3.9 |

| SMILES | LC retention time [min] |
| --- | --- |
| CCC1(c2cccc(O)c2)CCCCN(C)C1 (centres undefined) [Meptazinol] | 4.74 |
| CCC[N+]12C(O)C(CC)C3CC1C1N(C)c4ccccc4C14CC2C3C4O (centres undefined) [Prajmaline] | 6.07 |
| O=[N+]([O-])c1cc(C(F)(F)F)c(Cl)c([N+](=O)[O-])c1Nc1ncc(C(F)(F)F)cc1Cl [Fluazinam] | 12.3 |
| CCNC(=O)c1ccc(OC)cc1 [N-ethyl-4-methoxybenzamide] | 5.59 |
| NC(C(=O)NC1C(=O)N2C(C(=O)O)=C(Cl)CSC12)c1ccccc1 (centres undefined) [Cefaclor] | 4.09 |
| CCc1cnc(C2=NC(C)(C(C)C)C(=O)N2)c(C(=O)O)c1 (centres undefined) [Imazethapyr] | 5.6 |
| CCCC(C)(COC(N)=O)COC(=O)NC(C)C (centres undefined) [Carisoprodol] | 7.99 |
| CC12CCC(=O)C=C1CCC1C2C(O)CC2(C=O)C(C(=O)CO)CCC12 (centres undefined) [Aldosterone] | 7.78 |
| CCCCCn1cc(C(=O)c2ccc(CC)c3ccccc23)c2ccccc21 [JWH-210] | 13.2 |
| CCCC(=O)Nc1ccc(OCC(O)CNC(C)C)c(C(C)=O)c1 (centres undefined) [Acebutolol] | 4.78 |
| C#CC1(O)CCC2C3CCC4=CC(=O)CCC4C3CCC21CC (centres undefined) [Norgestrel] | 10.2 |
| Clc1ccc2c(c1)C(c1ccccc1)=NCc1nncn1-2 [Estazolam] | 8.14 |
| CC1CC2C3CC(F)C4=CC(=O)C=CC4(C)C3(F)C(O)CC2(C)C1(O)C(=O)CO (centres undefined) [Flumethasone] | 8.28 |
| Cc1nnc(-c2ccccc2)c(=O)[nH]1 [Metamitron-desamino] | 5.29 |
| O=C1Cc2cc(CCN3CCN(c4nsc5ccccc45)CC3)c(Cl)cc2N1 [Ziprasidone] | 8.03 |
| CN1CCN2c3ncc(O)cc3Cc3ccccc3C2C1 (centres undefined) [Mirtazapine- 8-OH] | 4.54 |
| COC(=O)Nc1nc2ccc(C(=O)c3ccc(F)cc3)cc2[nH]1 [Flubendazole] | 8.65 |
| CN1CCN=C(c2ccccc2)c2cc(Cl)ccc21 [Medazepam] | 10.2 |
| CC(C)NCC(O)c1ccccc1Cl (centres undefined) [Clorprenaline] | 4.76 |
| CN(C(=O)COc1nc2ccccc2s1)c1ccccc1 [Mefenacet] | 9.83 |
| O=C(O)CCCCn1cc(C(=O)c2cccc3ccccc23)c2ccccc21 [JWH-018-M-N-Pentanoic acid] | 9.71 |

| SMILES | LC retention time [min] |
| --- | --- |
| CCCCc1c(C)nc(N(C)C)[nH]c1=O [Dimethirimol] | 7.7 |
| Cc1cc(Cl)ccc1OCCCC(=O)O [MCPB] | 10.1 |
| CON(C)C(=O)Nc1ccc(Br)c(Cl)c1 [Chlorbromuron] | 9.55 |
| CCCCCCCCCCCC(=O)NCCC[N+](C)(C)CC(=O)O [Lauramidopropylbetaine] | 13.1 |
| O=C(NC(=O)c1c(F)cccc1F)Nc1ccc(Oc2ccc(C(F)(F)F)cc2Cl)cc1F [Flufenoxuron] | 12.9 |
| O=C(NC(=O)c1c(F)cccc1F)Nc1ccc(OC(F)(F)C(F)OC(F)(F)F)c(Cl)c1 (centres undefined) [Novaluron] | 11.9 |
| CNC(C)C(=O)c1ccc(Br)cc1 (centres undefined) [Brefedrone] | 5.05 |
| NC(N)=NS(=O)(=O)c1ccc(N)cc1 [Sulfaguanidine] | 1.93 |
| OCCOCCN1CCN(C(c2ccccc2)c2ccc(Cl)cc2)CC1 (centres undefined) [Hydroxyzine] | 8.28 |
| COc1ccc(CCN(C)CCCC(C#N)(c2ccc(OC)c(OC)c2)C(C)C)cc1OC (centres undefined) [Verapamil] | 7.03 |
| CCNC(=O)C(C)OC(=O)Nc1ccccc1 (centres undefined) [Carbetamide] | 6.58 |
| CCCc1nc(C)c2c(=O)[nH]c(-c3cc(S(=O)(=O)N4CCN(CC)CC4)ccc3OCC)nn12 [Vardenafil] | 8.11 |
| CCCCCCCCc1ccc(OCCOCCO)cc1 [Octylphenol diethoxylates (OP2EO)_NH4 adduct] | 14.1 |
| Nc1ccn(C2OC(CO)C(O)C2O)c(=O)n1 (centres undefined) [Cytarabin] | 1.39 |
| CC(C)Nc1nc(Cl)nc(NC2CC2)n1 [Cyprazin] | 8.22 |
| CC(C)[N+](C)(CCOC(=O)C1c2ccccc2Oc2ccccc21)C(C)C [Propantheline (I+)] | 7.35 |
| CN(C)CCN1c2ccccc2Sc2ccc(Cl)cc21 [Chlorphenethazine] | 8.49 |
| CCCCNC(=O)OCC#CI [3-Iodopropynyl butylcarbamate] | 8.05 |
| CN1CCC23c4c5ccc(OCCN6CCOCC6)c4OC2C(O)C=CC3C1C5 (centres undefined) [Pholcodine] | 2.73 |
| COP(=S)(OC)Oc1ccc(S(C)(=O)=O)c(C)c1 [Fenthion-sulfon] | 7.57 |
| CC(C)(C)C(NC(=O)c1cn(CC2CCCCC2)c2ccccc12)C(N)=O (centres undefined) [ADB-CHMICA] | 11.7 |
